According to patent US20260166046A1, “Inhibitors of methionine aminopeptidase-2 and methods of preparation and uses thereof” (Primetime Life Sciences LLC, priority 2022, published 2026):
Read-outs that look alike come from different tables or passages of the source.

How the values were obtained:
[1] = test system: G. lamblia WB; assay: Trophozoite viability IC50 determination, Giardia assay (ATPLite); assay type: cell-based; settings: Giardia duodenalis, read-out: Cell viability values Mean IC50 (nM) G. lamblia WB
Protocol: (§1) Giardia cultures: Trophozoites of G. lamblia isolates WB and GS were grown anaerobically in borosilicate glass screw-cap culture tubes (Fisher Scientific) at pH 7.0 in modified TYI-S-33 medium. The medium was supplemented with 10% heat-inactivated bovine serum (Sigma-Aldrich) and 0.05% bovine bile (Sigma-Aldrich). To attain low-oxygen-tension conditions, the tubes were filled to 85 to 90% of their total volume capacity and incubated without shaking at 37° C. Subcultures (2×10^5 trophozoites per tube) were made three times a week. Detachment of trophozoites for inoculation was achieved by chilling the cultures on ice for 20 min. Culturing and detachment of Metronidazole-resistant G. lamblia Assemblage A 713M3 and assemblage B 1279-M1 trophozoites followed the same protocol, except that the growth medium was supplemented with metronidazole gradually increasing the concentration to 10 μM. Amebae cultures: E. histolytica strain HM1:IMSS trophozoites were grown at 37° C. in TYI-S-33 medium supplemented with penicillin (100 U/mL) and streptomycin sulfate (100 μg/mL). Trophozoites were grown anaerobically in borosilicate tubes and subcultures were made 1-2 times a week. Trophozoites were detached for inoculation by chilling the cultures on ice for 20 minutes.
(§2) Trophozoite viability IC50determination
(§3) Giardia assays: 10 μL giardia trophozoites in growth medium were plated at a density of 10,000 cells/well in sterile 96-well black clear bottom assay plates. Fumagillin and fumagillol derivatives were 1:3 serially diluted from a 1 μM DMSO stock solution and then 100 μL/well were transferred in duplicate to the assay wells. Metronidazole (control) was 1:3 serially diluted in growth medium from a 100 μM stock solution in DMSO. The assay plates were placed in a BD GasPak™ EZ Container System (BD Diagnostics) to create an anaerobic growth environment. The sealed containers were incubated at 37° C. for 72 hr. Following incubation, 70 μL/well of the ATPLite reagent (PerkinElmer) was added to the assay plates for one-step lysis and ATP level detection. The luminescent signals of the assay plates were measured on an EnSpire 2300 plate reader (PerkinElmer). Concentration response titration points for each compound were fitted to a 4-parameters logistic nonlinear regression model using KaleidaGraph, yielding the IC50value and standard error (SE).

[2] = test system: G. lamblia GS; assay: as above; assay type: cell-based; settings: read-out: Cell viability values Mean IC50 (nM) G. lamblia GS
Protocol: as §1, §2, §3

[3] = test system: E. histolytica HM1: IMSS; assay: Trophozoite viability IC50 determination, Amebae assay (ATPLite); assay type: cell-based; settings: Entamoeba histolytica, read-out: Cell viability values Mean IC50 (nM) E. histolytica HM1: IMSS
Protocol: as §1, §2, §3
Amebae assays: The protocol is identical to that described above except that the trophozoites were plated at a density of 5000 cells/well because of their larger size.

[4] = target: T1, Recombinant human MetAP2 (Homo sapiens, UniProt P50579); assay: MetAP2 fluorescence assay; assay type: biochemical; settings: recombinant human MetAP2, H-Met-Gly-Pro-AMC substrate
T1 construct: purchased Bio-Techne/R&D systems
Protocol: MetAP2 Fluorescence Assay
Recombinant human MetAP2 (Bio-Techne/R&D systems) was diluted to 10 μg/mL in the assay buffer (50 mM HEPES, 0.1 mM CoCl2, 100 mM NaCl, pH 7.5). The substrate, H-Met-Gly-Pro-AMC (Bio-Techne/R&D systems), was diluted to 500 μM with 2 μg/mL of the coupling enzyme, recombinant human dipeptidyl peptidase-4 (Bio-Techne/R&D systems), in assay buffer. 50 μL of 10 μg/mL recombinant human METAP2 were loaded into a flat-bottom black 96-well plate (Greiner Bio), and the reaction was initiated by adding 50 μL of the substrate/dipeptidyl peptidase-4 mixture. The reaction mixture was incubated at room temperature for 10 minutes, and the fluorescence was measured for 5 minutes at excitation and emission wavelengths of 380 nm and 460 nm, respectively, in kinetic mode. For IC50determination, 0.5 μL inhibitor solution was added to the reaction mixture. The reaction rates were used to calculate IC50with KaleidaGraph.

[5] = trophozoites, 72 hr, anaerobic, ATP level
[6] = Giardia duodenalis, trophozoites, 72 hr, anaerobic, ATP level

T1 sequence (P50579 whole entry): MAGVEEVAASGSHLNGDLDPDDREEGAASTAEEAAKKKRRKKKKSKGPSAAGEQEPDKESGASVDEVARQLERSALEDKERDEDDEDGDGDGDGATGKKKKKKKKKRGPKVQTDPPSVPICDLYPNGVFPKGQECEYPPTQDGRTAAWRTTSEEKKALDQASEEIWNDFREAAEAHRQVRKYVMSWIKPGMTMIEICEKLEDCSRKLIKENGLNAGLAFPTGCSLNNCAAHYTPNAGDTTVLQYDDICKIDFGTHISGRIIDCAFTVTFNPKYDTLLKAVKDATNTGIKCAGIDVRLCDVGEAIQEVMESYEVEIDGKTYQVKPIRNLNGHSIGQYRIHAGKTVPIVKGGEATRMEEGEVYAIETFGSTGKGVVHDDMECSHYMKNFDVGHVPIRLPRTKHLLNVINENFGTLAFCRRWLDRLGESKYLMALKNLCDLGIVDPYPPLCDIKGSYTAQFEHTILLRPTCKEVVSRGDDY

| Compound | IC50 [1, 5] [nM] | IC50 [2, 6] [nM] | IC50 [3, 5] [nM] | IC50 [4] [µM] | IC50 ([1]; 72 h) [nM] | IC50 ([2]; Giardia duodenalis, 72 h) [nM] | IC50 ([3]; 72 h) [nM] | IC50 [2, 5] [nM] |
| --- | --- | --- | --- | --- | --- | --- | --- | --- |
| CO[C@@H]1[C@H](OC(=O)Nc2ccc3c(c2)COB3O)CC[C@]2(CO2)[C@H]1[C@@]1(C)O[C@@H]1CC=C(C)C [No 1, (3R,4S,5S,6R)-5-methoxy-4-((2R,3R)-2-methyl-3-(3-methylbut-2-en-1-yl)oxiran-2-yl)-1-oxaspiro[2.5]octan-6-yl (1-hydroxy-1,3-dihydrobenzo[c][1,2]oxaborol-5-yl)carbamate] | < 10 | < 10 | < 10 | – | – | – | – | – |
| CO[C@@H]1[C@H](OC(=O)Nc2ccc3c(c2)C(C)OB3O)CC[C@]2(CO2)[C@H]1[C@@]1(C)O[C@@H]1CC=C(C)C (stereo partly drawn) [No 2] | < 10 | < 10 | < 10 | < 0.01 | – | – | – | – |
| CO[C@@H]1[C@H](OC(=O)Nc2ccc3c(c2)C(C)(C)OB3O)CC[C@]2(CO2)[C@H]1[C@@]1(C)O[C@@H]1CC=C(C)C [No 3] | – | – | – | < 0.01 | < 10 | < 10 | < 10 | – |
| CO[C@@H]1[C@H](OC(=O)Nc2cc3c(cc2F)B(O)OC3(C)C)CC[C@]2(CO2)[C@H]1[C@@]1(C)O[C@@H]1CC=C(C)C [No 4] | – | – | – | < 0.01 | – | – | – | < 10 |
| CO[C@@H]1[C@H](OC(=O)N(C)c2ccc3c(c2)COB3O)CC[C@]2(CO2)[C@H]1[C@@]1(C)O[C@@H]1CC=C(C)C [No 5] | – | – | – | < 0.01 | – | – | – | – |
| CO[C@@H]1[C@H](OC(=O)Nc2ccc3c(c2)B(O)OC3)CC[C@]2(CO2)[C@H]1[C@@]1(C)O[C@@H]1CC=C(C)C [No 6] | – | – | – | < 0.01 | 10.1 to 100 | < 10 | 10.1 to 100 | – |
| CO[C@@H]1[C@H](OC(=O)Nc2ccc3c(c2)B(O)OC3C)CC[C@]2(CO2)[C@H]1[C@@]1(C)O[C@@H]1CC=C(C)C (stereo partly drawn) [No 7] | – | – | – | < 0.01 | – | – | – | < 10 |
| CO[C@@H]1[C@H](OC(=O)Nc2cc(F)c3c(c2)B(O)OC3)CC[C@]2(CO2)[C@H]1[C@@]1(C)O[C@@H]1CC=C(C)C [No 8] | – | – | – | < 0.01 | – | – | – | < 10 |
| CO[C@@H]1[C@H](OC(=O)Nc2cc(Cl)c3c(c2)B(O)OC3)CC[C@]2(CO2)[C@H]1[C@@]1(C)O[C@@H]1CC=C(C)C [No 10] | – | – | – | < 0.01 | 10.1 to 100 | 10.1 to 100 | 10.1 to 100 | – |
| CO[C@@H]1[C@H](OC(=O)Nc2cccc3c2COB3O)CC[C@]2(CO2)[C@H]1[C@@]1(C)O[C@@H]1CC=C(C)C [No 12] | – | – | – | < 0.01 | 101 to 1000 | 10.1 to 100 | 101 to 1000 | – |
| CO[C@@H]1[C@H](OC(=O)Nc2ccc3c(c2)CCOB3O)CC[C@]2(CO2)[C@H]1[C@@]1(C)O[C@@H]1CC=C(C)C [No 13] | – | – | – | < 0.01 | 10.1 to 100 | < 10 | 101 to 1000 | – |
| CO[C@@H]1[C@H](OC(=O)Nc2ccc3c(c2)B(O)OCC3)CC[C@]2(CO2)[C@H]1[C@@]1(C)O[C@@H]1CC=C(C)C [No 14] | – | – | – | < 0.01 | 101 to 1000 | 10.1 to 100 | 101 to 1000 | – |
| CO[C@@H]1[C@H](OC(=O)N(C)c2ccc3c(c2)CCOB3O)CC[C@]2(CO2)[C@H]1[C@@]1(C)O[C@@H]1CC=C(C)C [No 15] | – | – | – | < 0.01 | 101 to 1000 | 101 to 1000 | 101 to 1000 | – |
| CO[C@@H]1[C@H](OC(=O)N(C)c2ccc3c(c2)B(O)OCC3)CC[C@]2(CO2)[C@H]1[C@@]1(C)O[C@@H]1CC=C(C)C [No 16] | 101 to 1000 | 101 to 1000 | 101 to 1000 | < 0.01 | – | – | – | – |
| CO[C@@H]1[C@H](OC(=O)Nc2ccc(B(O)O)cc2)CC[C@]2(CO2)[C@H]1[C@@]1(C)O[C@@H]1CC=C(C)C [No 17] | 10.1 to 100 | < 10 | 10.1 to 100 | < 0.01 | – | – | – | – |
| CO[C@@H]1[C@H](OC(=O)Nc2cccc(B(O)O)c2)CC[C@]2(CO2)[C@H]1[C@@]1(C)O[C@@H]1CC=C(C)C [No 18] | – | – | – | < 0.01 | 101 to 1000 | 10.1 to 100 | 101 to 1000 | – |
